Measured values from PubChem BioAssay (NCI).
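Cultured in 96-well plates, cells were exposed to test compound for 48 hours across five concentrations. GI50 marks 50% less growth. Definition used: TGI = concentration required for complete inhibition of growth.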 *1 amine or outer side, *2 acyl side, *3 side chain or, on linkers, in order; H or OH if unused. Where a SMILES comes first, the peptide text is derived from it. Bridges are numbered along the chain shown (N, C = ends). Roman numbers before positions name the chains, in order. [ ]: non-standard residue; d: D form. Actinocin(9to1) = Cc1c2oc3c(C)ccc(C(=O)[*:1])c3nc-2c(C(=O)[*:2])c(N)c1=O; NMeV = CN[CH](C(=O)O)C(C)C; Sar = CNCC(=O)O

Legend:
Assay in all cases: NCI anticancer screen, dose series, 48 h
[1] = system: COLO 205 colon
[2] = system: HCC-2998 colon
[3] = system: HCT-15 colon
[4] = system: HOP-92 NSCLC
[5] = system: M14 melanoma
[6] = system: MALME-3M melanoma
[7] = system: MOLT-4 leukemia
[8] = system: NCI-H23 lung
[9] = system: OVCAR-5 ovarian
[10] = system: SF-295 CNS
[11] = system: SF-539 CNS
[12] = system: SK-OV-3 ovarian
[13] = system: SN12C renal
[14] = system: SNB-75 CNS
[15] = system: SW-620 colon
[16] = system: TK-10 renal

Row | Compound | TGI [1] [µM] | TGI [2] [µM] | TGI [3] [µM] | TGI [4] [µM] | TGI [5] [µM] | TGI [6] [µM] | TGI [7] [µM] | TGI [8] [µM] | TGI [9] [µM] | TGI [10] [µM] | TGI [11] [µM] | TGI [12] [µM] | TGI [13] [µM] | TGI [14] [µM] | TGI [15] [µM] | TGI [16] [µM] | GI50 [9] [µM]
1 | C/C(=N\NC(N)=S)c1ccc2c(c1)Sc1ccccc1O2 | 7.28 | 4.65 | 4.63 | 28 | > 100 | > 100 | > 100 | 79.1 | > 100 | > 100 | 4.79 | 39.5 | > 100 | 7.21 | > 100 | 30.7 | –
2 | COc1ccc(C(C)NNC(=O)c2ccncc2)cc1OC (stereo not drawn) | > 100 | > 100 | > 100 | > 100 | > 100 | > 100 | > 100 | > 100 | > 100 | > 100 | > 100 | > 100 | > 100 | > 100 | > 100 | > 100 | –
3 | CCOC(=O)/C(C#N)=C/c1coc2cc(C)cc(C)c2c1=O | > 100 | > 100 | > 100 | > 100 | > 100 | > 100 | > 100 | > 100 | > 100 | > 100 | > 100 | > 100 | > 100 | > 100 | > 100 | > 100 | –
4 | CCOC(=O)C12OC(OCC)(CC1(OCC)OCC)C1(CC1)C2=O (stereo not drawn) | > 100 | > 100 | > 100 | > 100 | > 100 | > 100 | > 100 | > 100 | > 100 | > 100 | > 100 | > 100 | > 100 | > 100 | > 100 | > 100 | –
5 | COc1ccc(C(SCCO)(c2ccccc2)c2ccc(OC)cc2)cc1 | 36.2 | 15.2 | 30.3 | 29.1 | 23.1 | 31.4 | 50.2 | 38.1 | 31.6 | 19 | 31.2 | 35.4 | 30.5 | 16.8 | 35.6 | 33.5 | –
6 | CCCC/C=C/C=C/C=C/CCCCCCCC(=O)OCC(COC(=O)CCCCCCC/C=C/C1C=CC(CCCC)C(C(=O)O)C1C(=O)O)OC(=O)CCCCCCC/C=C/C=C/C=C/CCCC (stereo not drawn) (tested in a mixture with another compound) | 29.3 | 40.7 | 30.8 | 48.1 | 29.7 | 35.8 | 47.2 | 40.3 | 43.1 | 35.8 | 39.1 | 44.6 | 44.3 | 36.7 | 18 | 37.7 | –
7 | O=C1C(Br)=C(Br)C(=O)c2ccc(=O)ccc21 | 26.4 | > 100 | 38.7 | 34.8 | 32.7 | 37.4 | 23.5 | 43.1 | > 86.7 | 50.9 | 45 | > 100 | 33.7 | > 100 | 42.7 | 37.2 | –
8 | CCOC(=O)CCC(NC(=O)C(N)Cc1ccc(N(CCCl)CCCl)cc1)C(=O)OCC (stereo not drawn) | 1.85 | 2.23 | 1.93 | 1.59 | 1.39 | 0.747 | 1.99 | 1.68 | 7.19 | 11.7 | 3.38 | 5.3 | 5.72 | 2.79 | 5.3 | 4.41 | –
9 | COc1ccccc1CC(=O)C(O)(C(F)(F)F)C(F)(F)F | > 100 | > 100 | > 100 | > 100 | > 100 | > 100 | > 100 | > 100 | > 100 | > 100 | > 100 | > 100 | > 100 | > 100 | > 100 | > 100 | –
10 | COc1ccc2oc3c(C)cc4c(OC)nnc(OC)c4c3c2c1 | > 100 | > 100 | 63.9 | > 100 | > 100 | > 100 | > 100 | > 100 | > 100 | > 100 | > 100 | > 100 | > 100 | > 100 | > 100 | 91.9 | –
11 | COc1ccc(S(=O)(=O)n2c3c(c4ccccc42)[C@@H]2[C@@H](CCCN2C(=O)CS(=O)c2ccc(C)cc2)[C@H](Cl)C3)cc1 (stereo partly drawn) | > 100 | > 100 | > 100 | > 100 | > 100 | > 100 | > 100 | > 100 | > 100 | > 100 | > 100 | > 100 | > 100 | > 100 | > 100 | > 100 | –
12 | Cc1c2oc3c(C)ccc(C(=O)NC4C(=O)NC(C(C)C)C(=O)N5CCCC5C(=O)N(C)CC(=O)N(C)C(C(C)C)C(=O)OC4C)c3nc-2c(C(=O)NC2C(=O)NC(C(C)C)C(=O)N3CCCC3C(=O)N(C)CC(=O)N(C)C(C(C)C)C(=O)OC2C)c(N)c1=O (stereo not drawn) (I: TVP[Sar][NMeV] / II: TVP[Sar][NMeV]; ester I:1-I:C, II:1-II:C; linker I:N-II:N via Actinocin(9to1); configuration not given here) | 0.00299 | 0.0272 | > 1 | 0.0203 | 0.0207 | 0.0145 | 0.00137 | 0.00481 | 0.00663 | 0.0687 | 0.00299 | > 1 | 0.0379 | 0.000907 | 0.105 | > 0.246 | 0.00145
